In patent publication US20160159814A1, “GLYCINE TRANSPORTER INHIBITOR” (TAISHO PHARMACEUTICAL CO., LTD., priority 2013, published 2016) one finds IC50 data, which are given here for 32 compounds.

The target of this assay is T1, human type 1 glycine transporter (GlyT1) (Homo sapiens, UniProt P48067).
T1 construct: T98G cells (glioma cells) expressing human type 1 glycine transporter (GlyT1) were used; endogenous in cells; host or cells: T98G cells (human glioma cells)
T1 sequence (P48067 1-706): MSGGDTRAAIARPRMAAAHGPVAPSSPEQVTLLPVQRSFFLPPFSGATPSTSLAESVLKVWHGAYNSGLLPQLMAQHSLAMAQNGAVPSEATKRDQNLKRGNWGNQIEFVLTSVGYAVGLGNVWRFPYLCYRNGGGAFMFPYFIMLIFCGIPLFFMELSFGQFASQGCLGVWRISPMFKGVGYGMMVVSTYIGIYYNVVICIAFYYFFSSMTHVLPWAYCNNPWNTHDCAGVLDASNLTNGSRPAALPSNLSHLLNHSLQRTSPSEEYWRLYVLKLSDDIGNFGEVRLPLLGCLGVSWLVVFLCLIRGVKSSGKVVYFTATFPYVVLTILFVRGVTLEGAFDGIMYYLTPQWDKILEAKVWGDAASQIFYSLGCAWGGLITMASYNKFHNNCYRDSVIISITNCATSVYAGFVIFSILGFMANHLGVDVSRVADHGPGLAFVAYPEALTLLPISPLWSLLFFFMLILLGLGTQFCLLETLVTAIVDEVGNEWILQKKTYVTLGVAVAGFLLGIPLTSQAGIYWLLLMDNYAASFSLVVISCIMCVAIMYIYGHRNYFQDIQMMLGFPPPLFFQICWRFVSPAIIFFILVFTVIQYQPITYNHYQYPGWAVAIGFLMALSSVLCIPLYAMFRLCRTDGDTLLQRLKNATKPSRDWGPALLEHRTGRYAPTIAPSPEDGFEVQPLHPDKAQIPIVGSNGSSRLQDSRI
The assay is described as follows: Glycine uptake inhibition experiment ([3H] glycine uptake in T98G cells expressing GlyT1). Type of assay: cell-based. An outline of the steps:
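T98G glioma cells expressing human GlyT1 were pretreated 10 min with compound in HEPES buffer pH 7.4 (0.2% BSA), then incubated with compound plus 250 nM final [3H]glycine for 15 min at room temperature. Intracellular radioactivity was counted after NaOH lysis; 10 μM ALX5407 defined non-specific uptake. IC50 came from 10^−9–10^−5 M curves.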

The mark [1] stands for this setting: table section whose head prints (μm).

Like-named read-outs stand apart in the source and are kept apart here.

Broadly, the IC50 is the concentration that gives 50% inhibition. High values mean weaker potency, low ones greater potency. Take `C[C@H](O)c1cccc2c1C(F)(F)C(=O)N2Cc1ccsc1` [Compound 80, 3,3-difluoro-4-[(1S)-1-hydroxyethyl]-1-(thiophen-3-ylmethyl)-1,3-dihydro-2H-indol-2-one]: the IC50 (glycine uptake inhibition) amounted to 28 nM. In other words, the double-digit nanomolar range.

Consider `Cn1c(CN2C(=O)C(F)(F)c3c([C@@H](O)C(F)(F)F)cccc32)nc2ccccc21` [Compound 137], for which the IC50 (glycine uptake inhibition) was found to be 150 nM.

In the case of `CC(O)c1cccc2c1C(F)(F)C(=O)N2Cc1cncc(Cl)c1` (centres unmarked) [Compound 3, 1-[(5-chloropyridin-3-yl)methyl]-3,3-difluoro-4-(1-hydroxyethyl)-1,3-dihydro-2H-indol-2-one], under “glycine uptake inhibition”, it took 32 nM to reach half-maximal inhibition (IC50).

Turning to `CC(c1cccc(Cl)n1)N1C(=O)C(F)(F)c2c([C@H](C)O)cccc21` (single isomer, unassigned) [Compound 53], where the note is “glycine uptake inhibition”, the half-maximal inhibitory concentration (IC50) is 140 nM.

Take `COc1cc(CN2C(=O)C(F)(F)c3c([C@H](C)O)cccc32)cnc1F` [Compound 240, 3,3-difluoro-1-[(6-fluoro-6-methoxypyridin-3-yl)methyl]-4-[(1S)-1-hydroxyethyl]-1,3-dihydro-2H-indol-2-one]: the IC50 was 60 nM.

In the case of `CC(C)(O)c1cccc2c1C(F)(F)C(=O)N2Cc1cccc(Cl)n1` [Compound 12, 1-[(6-chloropyridin-2-yl)methyl]-3,3-difluoro-4-(2-hydroxypropan-2-yl)-1,3-dihydro-2H-indol-2-one], 700 nM corresponded to half-maximal inhibition (glycine uptake inhibition) (IC50).

`N#Cc1cccc(CN2C(=O)C(F)(F)c3c(C(O)C(F)(F)F)cccc32)n1` (single isomer, unassigned) [Compound 19, 6-{[3,3-difluoro-2-oxo-4-(2,2,2-trifluoro-1-hydroxyethyl)-2,3-dihydro-1H-indol-1-yl]methyl}pyridine-2-carbonitrile] had an IC50 (glycine uptake inhibition) of 60 nM. Compared with the last compound, the IC50 is about 12-fold lower.

The compound `O=C1N(Cc2cc(C(F)(F)F)ccn2)c2cccc(C(O)C(F)F)c2C1(F)F` (single isomer, unassigned) [Compound 159, 4-(2,2-difluoro-1-hydroxyethyl)-3,3-difluoro-1-{[4-(trifluoromethyl)pyridin-2-yl]methyl}-1,3-dihydro-2H-indol-2-one] registered an IC50 of 53 nM. This counts as double-digit nanomolar.

Compound `C[C@H](O)c1cccc2c1C(F)(F)C(=O)N2Cc1ncc(F)cc1Br` [Compound 226, 1-[(3-bromo-5-fluoropyridin-2-yl)methyl]-3,3-difluoro-4-[(1S)-1-hydroxyethyl]-1,3-dihydro-2H-indol-2-one] showed a concentration for half-maximal inhibition (IC50) of 40 nM.

Regarding `O=C1N(Cc2cncc(C(F)(F)F)c2)c2cccc(C(O)C(F)F)c2C1(F)F` (single isomer, unassigned) [Compound 186, 4-(2,2-difluoro-1-hydroxyethyl)-3,3-difluoro-1-{[5-(trifluoromethyl)pyridin-3-yl]methyl}-1,3-dihydro-2H-indol-2-one], the half-maximal inhibitory concentration (IC50) stood at 64 nM.

For the setting “glycine uptake inhibition”, `C[C@H](O)c1cccc2c1C(F)(F)C(=O)N2Cc1cnc2ccccc2n1` [Compound 83, 3,3-difluoro-4-[(1S)-1-hydroxyethyl]-1-(quinoxalin-2-ylmethyl)1,3-dihydro-2H-indol-2-one] registered an IC50 of 30 nM.

`C[C@H](O)c1cccc2c1C(F)(F)C(=O)N2Cc1nc2cc(F)ccc2c(=O)n1C` [Compound 132, 2-({3,3-difluoro-4-[(1S)-1-hydroxyethyl]-2-oxo-2,3-dihydro-1H-indol-1-yl}methyl)-7-fluoro-3-methylquinazolin-4(3H)-one] showed an IC50 (glycine uptake inhibition) of 18 nM.

Take `CC(O)c1cccc2c1C(F)(F)C(=O)N2Cc1ccnc(C#N)c1` (centres unmarked) [Compound 28]: the IC50 (glycine uptake inhibition) is 98 nM.

As for `CC(O)c1cccc2c1C(F)(F)C(=O)N2Cc1ccnc(F)c1` (centres unmarked) [Compound 29, 3,3-difluoro-1-[(2-fluoropyridin-4-yl)methyl]-4-(1-hydroxyethyl)-1,3-dihydro-2H-indol-2-one], the IC50 (glycine uptake inhibition) was determined as 77 nM. The IC50 values of the last two compounds are within 1.5-fold of each other.

As for `O=C1N(Cc2ccnc(Cl)c2)c2cccc(C(O)C(F)F)c2C1(F)F` (single isomer, unassigned) [Compound 35], the IC50 (glycine uptake inhibition) turned out to be 280 nM.

The compound `COc1cc(CN2C(=O)C(F)(F)c3c(C(O)C(F)F)cccc32)cnc1F` (single isomer, unassigned) [Compound 273, 4-(2,2-difluoro-1-hydroxyethyl)-3,3-difluoro-1-[(6-fluoro-5-methoxypyridin-3-yl)methyl]-1,3-dihydro-2H-indol-2-one] returned a half-inhibitory concentration (IC50) of 140 nM. That is a sub-micromolar value.

The compound `COc1cc(CN2C(=O)C(F)(F)c3c([C@H](C)O)cccc32)ncc1F` [Compound 261, 3,3-difluoro-1-[(5-fluoro-4-methoxypyridin-2-yl)methyl)-[(1S)-1-hydroxyethyl]-1,3-dihydro-2H-indol-2-one] showed an IC50 under setting [1] of 250 nM.

In the case of `N#Cc1cc(CN2C(=O)C(F)(F)c3c(C(O)C(F)F)cccc32)c(F)cn1` (single isomer, unassigned) [Compound 219, 4-{[4-(2,2-difluoro-1-hydroxyethyl)-3,3-difluoro-2-oxo-2,3-dihydro-1H-indol-1-yl]methyl)-5-fluoropyridine-2-carbonitrile], the IC50 was 180 nM. In other words, the sub-micromolar range.

`C[C@H](O)c1cccc2c1C(F)(F)C(=O)N2Cc1c2ccccc2nn1C` [Compound 93] showed an IC50 (glycine uptake inhibition) of 54 nM. This lies in the double-digit nanomolar range.

`CCOc1ccc(CN2C(=O)C(F)(F)c3c([C@H](C)O)cccc32)cn1` [Compound 241, 1-[(6-ethoxypyridin-3-yl)methyl]-3,3-difluoro-4-[(1S)-1-hydroxyethyl]-1,3-dihydro-2H-indol-2-one] registered an IC50 of 66 nM.

For the compound `O=C1N(Cc2ccnc(Cl)c2)c2cccc([C@@H](O)C(F)(F)F)c2C1(F)F` [Compound 32, 1-[(2-chloropyridin-4-yl)methyl]-3,3-difluoro-4-[(1R)-2,2,2-trifluoro-1-hydroxyethyl]-1,3-dihydro-2H-indol-2-one], the IC50 (glycine uptake inhibition) is 38 nM.

Take `N#Cc1nc(CN2C(=O)C(F)(F)c3c(C(O)C(F)F)cccc32)ccc1F` (single isomer, unassigned) [Compound 275, 6-{[4-(2,2-difluoro-1-hydroxyethyl)-3,3-difluoro-2-oxo-2,3-dihydro-1H-indol-1-yl]methyl}-3-fluoropyridine-2-carbonitrile]: inhibition was half-maximal at 9.1 nM (IC50).

Consider `C[C@H](O)c1cccc2c1C(F)(F)C(=O)N2Cc1nc2cnccc2c(=O)n1C` [Compound 111, 2-({3,3-difluoro-4-[(1s)-1-hydroxyethyl]-2-oxo-2,3-dihydro-1H-indol-1-yl}methyl)-3-methylpyrido[3,4-d]pyrimidin-4(3H)-one], for which the IC50 (glycine uptake inhibition) came out at 130 nM.

The compound `COc1ccncc1CN1C(=O)C(F)(F)c2c([C@H](C)O)cccc21` [Compound 209, 3,3-difluoro-4-[(1S)-1-hydroxyethyl]-1-[(4-methoxypyridin-3-yl)methyl]-1,3-dihydro-2H-indol-2-one] displayed an IC50 of 2800 nM.

As for `C[C@H](O)c1cccc2c1C(F)(F)C(=O)N2Cc1cncc(-n2ccnn2)c1` [Compound 87, 3,3-difluoro-4-[(1S)-1-hydroxyethyl]-1-{[5-(1H-1,2,3-triazol-1-yl)pyridin-3-yl]methyl}-1,3-dihydro-2H-indol-2-one], the 50% inhibitory concentration (IC50) (glycine uptake inhibition) came to 1500 nM.

In turn, `C[C@H](O)c1cccc2c1C(F)(F)C(=O)N2Cc1cncc(C2CC2)c1` [Compound 174, 1-[(5-cyclopropylpyridin-3-yl)methyl]-3,3-difluoro-4-[(1S)-1-hydroxyethyl]-1,3-dihydro-2H-indol-2-one] showed an IC50 of 95 nM.

Take `C[C@H](O)c1cccc2c1C(F)(F)C(=O)N2Cc1ccc(C(F)F)cn1` [Compound 131, 1-{[5-(difluoromethyl)pyridin-2-yl]methyl)-3,3-difluoro-4-[(1S)-1-hydroxyethyl]-1,3-dihydro-2H-indol-2-one]: inhibition (glycine uptake inhibition) was half-maximal at 930 nM (IC50).

`N#Cc1nccc(CN2C(=O)C(F)(F)c3c(C(O)C(F)F)cccc32)c1Cl` (single isomer, unassigned) [Compound 267] registered an IC50 under setting [1] of 260 nM. This counts as sub-micromolar.

Regarding `C[C@H](O)c1cccc2c1C(F)(F)C(=O)N2Cc1ccnc(C(F)(F)F)c1` [Compound 86, 3,3-difluoro-4-[(1S)-1-hydroxyethyl]-1-{[2-(trifluoromethyl)pyridin-4-yl]methyl}-1,3-dihydro-2H-indol-2-one], 24 nM corresponded to half-maximal inhibition (glycine uptake inhibition) (IC50). This lies in the double-digit nanomolar range.

Compound `O=C1N(Cc2cnc3ccccc3c2)c2cccc(C(O)C(F)F)c2C1(F)F` (single isomer, unassigned) [Compound 143, 4-(2,2-difluoro-1-hydroxyethyl)-3,3-difluoro-1-(quinolin-3-ylmethyl)-1,3-dihydro-2H-indol-2-one] yielded an IC50 (glycine uptake inhibition) of 48 nM.

As for `C[C@H](O)c1cccc2c1C(F)(F)C(=O)N2Cc1cc(C#N)c(F)cn1` [Compound 262, 2-{(3,3-difluoro-4-[(1S)-1-hydroxyethyl]-2-oxo-2,3-dihydro-1H-indol-1-yl}methyl)-5-fluoropyridine-4-carbonitrile], under setting [1], the IC50 was determined as 62 nM.

In turn, `C[C@H](O)c1cccc2c1C(F)(F)C(=O)N2Cc1ccc(Cl)nc1Cl` [Compound 224, 1-[(2,6-dichloropyridin-3-yl)methyl]-3,3-difluoro-4-[(1S)-1-hydroxyethyl]-1,3-dihydro-2H-indol-2-one] showed an IC50 of 740 nM. In other words, the sub-micromolar range.
